Test results as given in patent US12012411B2, “Viral replication inhibitors” (Katholieke Universiteit Leuven, priority 2011, dated 2024).
Read-outs that look alike come from different tables or passages of the source.

Columns and labels:
[1] = tested on: DENV-3 strain H87 prototype; assay: Antiviral activity against DENV-3 in Vero-B cells (viral RNA load by RT-qPCR); assay type: cell-based, Dengue virus
[2] = tested on: uninfected quiescent Vero-B cells; assay: Cytotoxic assay in uninfected quiescent Vero-B cells (MTS/PMS); details: 4 days (Table 3)
[3] = tested on: DENV-1 Djibouti strain D1/H/IMTSSA/98/606; assay: Antiviral activity against DENV-1 in Vero-B cells (viral RNA load by RT-qPCR); assay type: cell-based, Dengue virus
[4] = tested on: DENV-4 strain Dak HD 34 460; assay: Antiviral activity against DENV-4 in Vero-B cells (viral RNA load by RT-qPCR); assay type: cell-based, Dengue virus
DENV-2 NGC = assay: Antiviral activity against DENV-2 NGC in Vero-B cells (viral RNA load by RT-qPCR); assay type: cell-based, Dengue virus; details: DENV-2 in Vero-B cells, inhibition of viral RNA replication by 50% (Table 3)
in vitro = details: African green monkey; for CC50 at 4 days: uninfected quiescent Vero-B cells

Row | SMILES | EC50 ([1]; Dengue virus, DENV3, Vero B) | CC50 [2] | EC50 ([3]; Dengue virus, DENV1, Vero B) | EC50 ([4]; Dengue virus, DENV4, Vero B) | EC50 (DENV-2 NGC; Dengue virus, DENV2, Vero B) | further results
1 | COc1cccc(NC(C(=O)c2c[nH]c3cc(F)ccc23)c2ccccc2)c1 (stereo not shown) [CPD-123] | 2.56 µM | 15 µM | 1.6 µM | 2.64 µM | 0.05 µM | –
2 | COc1cccc(NC(C(=O)c2c[nH]c3ccccc23)c2ccccc2)n1 (stereo not shown) [CPD-277] | – | 16 µM | – | – | 0.29 µM | –
3 | COc1cccc(NC(C(=O)c2c[nH]c3ccccc23)c2cc3ccccn3n2)c1 (single isomer, unassigned) [CPD-325] | – | 68 µM | – | – | – | EC50 [1]: 1.84 µM; EC50 [3]: 0.87 µM; EC50 [4]: 7.16 µM; EC50 (DENV-2 NGC): 0.09 µM
4 | CS(=O)(=O)c1cccc(NC(C(=O)c2c[nH]c3ccccc23)c2ccccc2)c1 (stereo not shown) [CPD-044] | – | 65 µM | – | – | 6.48 µM | –
5 | COc1cc(F)cc(NC(C(=O)c2c[nH]c3ccccc23)c2ccccc2)c1 (stereo not shown) [CPD-015] | – | 22 µM | – | – | 0.02 µM | –
6 | COc1cc(NC(C(=O)c2c[nH]c3cccc(CCCO)c23)c2ccccc2)cc(OC)c1 (stereo not shown) [CPD-357] | – | 55 µM | – | – | 1.35 µM | –
7 | CCOc1cc(NC(C(=O)c2c[nH]c3ccccc23)c2ccccc2)cc(OC)c1 (stereo not shown) [CPD-254] | 0.8 µM | 13 µM | 0.67 µM | 1.15 µM | 0.02 µM | –
8 | COc1cccc(NC(C(=O)c2c[nH]c3ccccc23)c2ccco2)c1 (stereo not shown) [CPD-023] | – | 16 µM | – | – | 0.3 µM | –
9 | N#Cc1cccc(NC(C(=O)c2c[nH]c3ccccc23)c2ccccc2)c1 (stereo not shown) [CPD-035] | – | 14 µM | – | – | 2.11 µM | –
10 | COc1cncc(NC(C(=O)c2c[nH]c3ccccc23)c2ccccc2)c1 (stereo not shown) [CPD-067] | 1.2 µM | 20 µM | < 0.5 µM | – | 0.04 µM | –
11 | COc1cc(NC(C(=O)c2c[nH]c3ccccc23)c2ccccc2)cc(OCCCO)c1 (stereo not shown) [CPD-361] | – | 50 µM | – | – | 0.09 µM | –
12 | COc1cncc(NC(C(=O)c2c[nH]c3ccc(F)cc23)c2ccc(OC)nc2)c1 (single isomer, unassigned) [CPD-323] | – | 58 µM | – | – | – | EC50 [1]: 4.99 µM; EC50 [3]: 3.62 µM; EC50 (DENV-2 NGC): 0.35 µM
13 | COc1cccc(NC(C(=O)c2c[nH]c3ccccc23)c2ccsc2)c1 (stereo not shown) [CPD-027] | 9.9 µM | 15 µM | 2.1 µM | 3.7 µM | 0.13 µM | –
14 | COc1cccc(NC(C(=O)c2c[nH]c3c(F)cccc23)c2ccccc2)c1 (stereo not shown) [CPD-205] | – | 14 µM | – | – | 0.06 µM | –
15 | COc1cc(NC(C(=O)c2c[nH]c3ccccc23)c2ccccc2)cc(OC)c1 (single isomer, unassigned) [CPD-326] | – | 13 µM | – | 1.89 µM | – | EC50 [1]: 0.09 µM; EC50 [3]: 0.05 µM; EC50 (DENV-2 NGC): 0.001 µM
16 | COc1ccnc(NC(C(=O)c2c[nH]c3ccccc23)c2ccccc2)c1 (stereo not shown) [CPD-066] | – | 95 µM | – | – | 6.32 µM | –
17 | COc1cccc(NC(C(=O)c2c[nH]c3cc(OC)ccc23)c2ccccc2)c1 (stereo not shown) [CPD-077] | 2.07 µM | 13 µM | 1.42 µM | 4.27 µM | 0.04 µM | –
18 | COc1cccc(NC(C(=O)c2c[nH]c3ccccc23)c2cc3ccccn3n2)c1 (stereo not shown) [CPD-083] | 0.71 µM | 26 µM | 0.54 µM | 2.52 µM | 0.03 µM | –
19 | COc1cccc(NC(C(=O)c2c[nH]c3ccccc23)c2ccncc2)c1 (stereo not shown) [CPD-020] | – | 16 µM | 15.1 µM | – | 0.14 µM | –
20 | COc1cc(NC(C(=O)c2c[nH]c3ccc(CCCO)cc23)c2ccccc2)cc(OC)c1 (stereo not shown) [CPD-353] | 0.17 µM | 56 µM | – | 7.18 µM | 0.1 µM | –
21 | COc1cccc(NC(C(=O)c2c[nH]c3ccccc23)c2cccc(C)c2)c1 (stereo not shown) [CPD-138] | 6.52 µM | 20 µM | 3.21 µM | – | 0.27 µM | –
22 | COc1cc(NC(C(=O)c2c[nH]c3cccc(CO)c23)c2ccccc2)cc(OC)c1 (stereo not shown) [CPD-352] | 3.03 µM | 71 µM | – | 8.6 µM | 0.29 µM | –
23 | COc1cncc(NC(C(=O)c2c[nH]c3ccccc23)c2ccccc2)n1 (stereo not shown) [CPD-252] | 12.6 µM | 68 µM | – | 2.29 µM | 0.48 µM | –
24 | COc1cc(NC(C(=O)c2c[nH]c3ccc(CO)cc23)c2ccccc2)cc(OC)c1 (stereo not shown) [CPD-351] | 2.02 µM | 65 µM | – | 9.58 µM | 0.11 µM | –
25 | O=C(c1c[nH]c2ccccc12)C(NC1CCCC1)c1ccccc1 (stereo not shown) [CPD-183] | – | 86 µM | – | – | 15.2 µM | –
26 | COc1cccc(NC(C(=O)c2c[nH]c3ccccc23)c2ccccc2C)c1 (stereo not shown) [CPD-348] | – | 14 µM | – | 3.75 µM | 0.1 µM | –
27 | O=C(c1c[nH]c2ccccc12)C(Nc1ccc2[nH]c(=O)oc2c1)c1ccccc1 (stereo not shown) [CPD-057] | – | 15 µM | – | – | 6.05 µM | –

Row | SMILES | EC50 ([1]; Dengue virus, DENV3, Vero B) | CC50 [2] | EC50 ([3]; Dengue virus, DENV1, Vero B) | EC50 ([4]; Dengue virus, DENV4, Vero B) | EC50 (DENV-2 NGC; Dengue virus, DENV2, Vero B) | further results
28 | COc1nc(NC(C(=O)c2c[nH]c3ccccc23)c2ccccc2)ns1 (stereo not shown) [CPD-070] | – | 90 µM | – | – | 3.27 µM | –
29 | COc1cccc(NC(C(=O)c2c[nH]c3cc(Cl)ccc23)c2ccccc2)c1 (stereo not shown) [CPD-118] | 3.68 µM | 13 µM | 0.44 µM | – | 0.01 µM | –
30 | COc1cccc(NC(C(=O)c2c[nH]c3ccccc23)c2ccc3nccnc3c2)c1 (stereo not shown) [CPD-037] | – | 19 µM | – | – | 1.2 µM | –
31 | COc1cc(NC(C(=O)c2c[nH]c3ccccc23)c2ccccc2)cc(OCCN(C)C)c1 (stereo not shown) [CPD-243] | – | 13 µM | – | – | 1.69 µM | –
32 | COc1cccc(NC(C(=O)c2c[nH]c3ccccc23)c2ccccc2)c1OC (stereo not shown) [CPD-040] | – | > 129 µM | – | – | 4.24 µM | –
33 | COc1cccc(NC(C(=O)c2c[nH]c3ccccc23)c2ccc(S(C)(=O)=O)cc2)c1 (stereo not shown) [CPD-021] | – | > 115 µM | – | – | 1.62 µM | –
34 | O=C(c1c[nH]c2ccccc12)C(Nc1cccc(F)c1)c1ccccc1 (stereo not shown) [CPD-008] | – | 12 µM | – | – | 2.42 µM | –
35 | O=C(c1c[nH]c2ccccc12)C(Nc1cccnc1)c1ccccc1 (stereo not shown) [CPD-016] | – | 54 µM | – | – | 5.01 µM | –
36 | COc1cccc(NC(C(=O)c2c[nH]c3ccccc23)c2cn3ccccc3n2)c1 (stereo not shown) [CPD-030] | 6.24 µM | – | 4.8 µM | 13.2 µM | 0.09 µM | CC50 at 4 days (in vitro): > 126 µM
37 | COc1cc(NC(C(=O)c2cn(C)c3ccccc23)c2ccccc2)cc(OCCO)c1 (stereo not shown) [CPD-305] | 1.02 µM | – | 0.44 µM | 2.56 µM | 0.09 µM | CC50 at 4 days (in vitro): > 116 µM
38 | COc1cccc(NC(C(=O)c2cn(C)c3ccc(F)cc23)c2ccccc2)c1 (stereo not shown) [CPD-137] | 3.81 µM | – | 0.67 µM | 2.78 µM | 0.05 µM | CC50 at 4 days (in vitro): > 128 µM
39 | COc1cc(NC(C(=O)c2c[nH]c3ccccc23)c2ccccc2)cc(OC)n1 (stereo not shown) [CPD-319] | 1.7 µM | – | 2.84 µM | 2.27 µM | 0.12 µM | CC50 at 4 days (in vitro): 20 µM
40 | COc1cc(CO)cc(NC(C(=O)c2c[nH]c3ccccc23)c2ccc(F)nc2)c1 (stereo not shown) [CPD-333] | 0.49 µM | – | 0.39 µM | 5.92 µM | 0.04 µM | CC50 at 4 days (in vitro): 90 µM
41 | COc1cc(CO)cc(NC(C(=O)c2nn(C)c3ccccc23)c2ccccc2)c1 (stereo not shown) [CPD-278] | 13.2 µM | – | 2.84 µM | 5.8 µM | 0.27 µM | CC50 at 4 days (in vitro): > 125 µM
42 | COc1cccc(NC(C(=O)c2cn(CCO)c3ccccc23)c2ccccc2)c1 (stereo not shown) [CPD-104] | 24 µM | – | 3.85 µM | 14.9 µM | 0.35 µM | CC50 (in vitro): 65 µM
43 | COc1cccc(NC(C(=O)c2nn(C)c3ccccc23)c2ccc(C#N)cc2)c1 (stereo not shown) [CPD-260] | 22.6 µM | – | 6.63 µM | 5.44 µM | 0.08 µM | CC50 at 4 days (in vitro): > 126 µM
44 | COc1cccc(NC(C(=O)c2c[nH]c3cc(Cl)ccc23)c2cn3ccccc3n2)c1 (stereo not shown) [CPD-150] | 1.07 µM | – | 1.28 µM | 8.87 µM | 0.03 µM | CC50 at 4 days (in vitro): 105 µM
45 | COc1cccc(NC(C(=O)c2c[nH]c3ccc(C#N)cc23)c2ccccc2)c1 (stereo not shown) [CPD-126] | 8.5 µM | – | 2.99 µM | 6.29 µM | 0.07 µM | CC50 at 4 days (in vitro): 16 µM
46 | COc1cccc(NC(C(=O)c2c[nH]c3ccc(S(C)(=O)=O)cc23)c2ccccc2)c1 (stereo not shown) [CPD-229] | 43 µM | – | 2.81 µM | 7.55 µM | 2.4 µM | CC50 at 4 days (in vitro): > 115 µM
47 | COc1cccc(NC(C(=O)c2c[nH]c3ccc(C)cc23)c2ccccc2)c1 (stereo not shown) [CPD-130] | 1.7 µM | – | 0.35 µM | 7.42 µM | 0.03 µM | CC50 at 4 days (in vitro): 15 µM
48 | COc1cccc(NC(C(=O)c2c[nH]c3ccc(F)cc23)c2ccc(OC)nc2)c1 (stereo not shown) [CPD-154] | 4.4 µM | – | 3.92 µM | 9.87 µM | 0.06 µM | CC50 at 4 days (in vitro): 44 µM
49 | O=C(c1c[nH]c2ccccc12)C(Nc1cc(F)cc(F)c1)c1ccccc1 (stereo not shown) [CPD-011] | – | 23 µM | – | – | 1.66 µM | –
50 | COc1cc(NC(C(=O)c2c[nH]c3ccccc23)c2ccccc2)ccn1 (stereo not shown) [CPD-045] | 0.87 µM | – | 0.64 µM | 11.1 µM | 0.06 µM | CC50 at 4 days (in vitro): > 139 µM
51 | COc1cccc(NC(C(=O)c2cn(C)c3ccccc23)c2ccccc2)c1 (stereo not shown) [CPD-049] | 10.5 µM | – | 2.21 µM | 2.27 µM | 0.08 µM | CC50 at 4 days (in vitro): > 134 µM
52 | COc1ccc(OC)c(NC(C(=O)c2c[nH]c3ccccc23)c2ccccc2)c1 (stereo not shown) [CPD-039] | – | 15 µM | – | – | 2.48 µM | –
53 | O=C(c1c[nH]c2ccccc12)C(Nc1cccc(OC(F)(F)F)c1)c1ccccc1 (stereo not shown) [CPD-005] | – | 5 µM | – | – | 0.93 µM | –
